The results in this text go back to patent publication US10294236B2, “Compounds as rearranged during transfection (RET) inhibitors” (GLAXOSMITHKLINE INTELLECTUAL PROPERTY DEVELOPMENT LIMITED, priority 2014, dated 2019).

Structures can show the parent of a compound that is named as a salt.

The experiment concerns the target T1, Human RET kinase cytoplasmic domain (Homo sapiens, UniProt P07949).
T1 construct: made in house
T1 sequence (P07949 658-1114): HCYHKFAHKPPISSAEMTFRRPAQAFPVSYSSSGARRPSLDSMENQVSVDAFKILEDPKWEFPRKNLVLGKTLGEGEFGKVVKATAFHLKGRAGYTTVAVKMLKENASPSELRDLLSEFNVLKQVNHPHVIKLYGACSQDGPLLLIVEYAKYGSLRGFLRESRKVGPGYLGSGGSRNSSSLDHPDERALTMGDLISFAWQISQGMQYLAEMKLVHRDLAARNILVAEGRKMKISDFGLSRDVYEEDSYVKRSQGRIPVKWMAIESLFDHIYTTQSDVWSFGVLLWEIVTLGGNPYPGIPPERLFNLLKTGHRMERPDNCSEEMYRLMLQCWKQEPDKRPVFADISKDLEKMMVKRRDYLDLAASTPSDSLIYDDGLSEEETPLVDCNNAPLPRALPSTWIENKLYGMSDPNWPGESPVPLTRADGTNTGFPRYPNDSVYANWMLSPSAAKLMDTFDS
The experiment can be described thus: RET kinase enzymatic assay. Type of experiment: biochemical. The gist of the method: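 GST-RET, 0.2 nM in 2× enzyme mix (HEPES, CHAPS, BSA, DTT), preincubated with inhibitor 30 min at 23 °C. Reaction for 1 h at 23 °C after adding 2× substrate mix: 20 μM ATP, 20 mM MgCl2, 1 μM biotinylated peptide. Single wells per concentration; IC50 from sigmoidal dose-response fit.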
For orientation: IC50 means the midpoint of a concentration-inhibition curve. Low values mean higher potency, high ones lower potency. Regarding `CCOc1cc(-c2ncc(NC(=O)Nc3ccc(C(C)(C)CN(C)C)c(C(F)(F)F)c3)c(C)n2)c[nH]c1=O` [Example 73, 1-(4-(1-(Dimethylamino)-2-methylpropan-2-yl)-3-(trifluoromethyl)phenyl)-3-(2-(5-ethoxy-6-oxo-1,6-dihydropyridin-3-yl)-4-methylpyrimidin-5-yl)urea dihydrochloride], the IC50 is below 100 nM.
As to `CCOc1cc(-c2ncc(NC(=O)Nc3cc(OCCN(C)C)cc(C(F)(F)F)c3)c(C)n2)c[nH]c1=O` [Example 74, 1-(3-(2-(Dimethylamino)ethoxy)-5-(trifluoromethyl)phenyl)-3-(2-(5-ethoxy-6-oxo-1,6-dihydropyridin-3-yl)-4-methylpyrimidin-5-yl)urea dihydrochloride], the IC50 was below 100 nM.
As to `CC(C)(O)c1ccc(NC(=O)Nc2ccc(-c3c[nH]c(=O)c4ccccc34)cc2F)cc1C(F)(F)F` [Example 75], the IC50 is below 100 nM.
The same measure for `CCOc1cc(-c2ccc(NC(=O)Nc3ccc(CN(C)C)c(C(F)(F)F)c3)c(F)c2)c[nH]c1=O` [Example 76]: below 100 nM; for `CCOc1cc(-c2ccc(NC(=O)Nc3ccc(C4(CO)CC4)c(C(F)(F)F)c3)c(F)c2)c[nH]c1=O` [Example 77]: below 100 nM; for `CCOc1cc(-c2ccc(NC(=O)Nc3cc(C(F)(F)F)ccc3F)c(F)c2)c[nH]c1=O` [Example 78]: below 100 nM.
The same measure for `CCOc1cc(-c2ccc(NC(=O)Nc3ccc(OC(C)(C)C)c(C(F)(F)F)c3)cc2)c[nH]c1=O` [Example 79]: below 100 nM.
Molecule `CCOc1ccc(NC(=O)Nc2ccc(-c3c[nH]c(=O)c(OCC)c3)cc2F)cc1C(F)(F)F` [Example 80] came in with an IC50 below 100 nM.
For `CCOc1cc(-c2ccc(NC(=O)Nc3ccc(CC(C)(C)C#N)c(C(F)(F)F)c3)c(F)c2)c[nH]c1=O` [Example 81] the value was below 100 nM; for `CCOc1cc(-c2ccc(NC(=O)Nc3ccc(OC(C)C)c(C(F)(F)F)c3)c(F)c2)c[nH]c1=O` [Example 82], below 100 nM; for `CCOc1cc(-c2ccc(NC(=O)Nc3ccc(OC(C)(C)C#N)c(C(F)(F)F)c3)c(F)c2)c[nH]c1=O` [Example 83], below 100 nM.
For `CCOc1cc(-c2ccc(NC(=O)Nc3ccc(OC4(C)CC(O)C4)c(C(F)(F)F)c3)c(F)c2)c[nH]c1=O` (stereo not shown) [Example 84] the value was below 100 nM.
The same measure for `CCOc1cc(-c2ccc(NC(=O)Nc3ccc(OC4(C)CCN(C(C)C)C4)c(C(F)(F)F)c3)c(F)c2)c[nH]c1=O` (stereo not shown) [Example 85]: below 100 nM; for `CCOc1cc(Oc2ccc(NC(=O)Nc3cc(C(F)(F)F)ccc3F)cc2)c[nH]c1=O` [Example 86]: below 100 nM.
As to `CCOc1cc(-c2ccc(NC(=O)Nc3ccc(OC4(C)COC4)c(C(F)(F)F)c3)c(Cl)n2)c[nH]c1=O` [Example 87], the IC50 was below 100 nM.
For `CCOc1cc(=O)[nH]cc1-c1ncc(NC(=O)Nc2ccc(C3(CO)CC3)c(C(F)(F)F)c2)c(C)n1` [Example 88] the value was below 100 nM; for `CCOc1cc(-c2ccc(NC(=O)Nc3cnc(C(C)(C)O)c(C(F)(F)F)c3)c(F)c2)c[nH]c1=O` [Example 89], below 100 nM; for `CCOc1cc(-c2cc(F)c(NC(=O)Nc3ccc(OC4(C)COC4)c(C(F)(F)F)c3)c(F)c2)c[nH]c1=O` [Example 90], below 100 nM.
For `CCOc1cc(-c2ncc(NC(=O)Nc3cc(C(=O)NCCN(C)C)cc(C(F)(F)F)c3)c(C)n2)c[nH]c1=O` [Example 91] the value was below 100 nM.
For `CCOc1cc(-c2ccc(NC(=O)Nc3cnc(OC(C)C)c(C(F)(F)F)c3)c(F)c2)c[nH]c1=O` [Example 92] the value was below 100 nM; for `CCOc1cc(-c2ccc(NC(=O)Nc3ccc(OC4(C)COC4)c(C(F)F)c3)c(F)c2)c[nH]c1=O` [Example 93], below 100 nM.
Molecule `CC1(Oc2ccc(NC(=O)Nc3ccc(-c4c[nH]c(=O)c(O)c4)cc3F)cc2C(F)(F)F)COC1` [Example 94] came in with a half-maximal inhibitory concentration (IC50) below 100 nM.
For `CNc1cc(-c2ccc(NC(=O)Nc3ccc(OC4(C)COC4)c(C(F)(F)F)c3)c(F)c2)c[nH]c1=O` [Example 95] the value was below 100 nM.
The same measure for `CCOc1cc(-c2ncc(NC(=O)Nc3ccc(OC4(C)COC4)c(C(F)(F)F)c3)c(C)n2)c[nH]c1=O` [Example 96]: below 100 nM; for `CCOc1cc(-c2cc(C)c(NC(=O)Nc3ccc(OC4(C)COC4)c(C(F)(F)F)c3)cn2)c[nH]c1=O` [Example 97]: below 100 nM.
The same measure for `CCOc1ccc(NC(=O)Nc2ccc(-c3c[nH]c(=O)c4ccoc34)cc2F)cc1C(F)(F)F` [Example 98]: below 100 nM; for `CCOc1cc(-c2ncc(NC(=O)Nc3cc(OCCN4CCOCC4)cc(C(F)(F)F)c3)c(C)n2)c[nH]c1=O` [Example 99]: below 100 nM; for `COc1cc(-c2ccc(NC(=O)Nc3ccc(OC4(C)COC4)c(C(F)(F)F)c3)c(C)n2)c[nH]c1=O` [Example 100]: below 100 nM.
`CCOc1cc(Oc2ccc(NC(=O)Nc3ccc(OC4(C)COC4)c(C(F)(F)F)c3)cn2)c[nH]c1=O` [Example 101] displayed an IC50 below 100 nM.
The same measure for `CCOc1cc(-c2ccc(NC(=O)Nc3ccc(OC4(C)COC4)c(C(F)(F)F)c3)c(CC)n2)c[nH]c1=O` [Example 102]: below 100 nM; for `CCOc1cc(-c2cnc(NC(=O)Nc3ccc(OC4(C)COC4)c(C(F)(F)F)c3)c(F)c2)c[nH]c1=O` [Example 103]: below 100 nM; for `CCOc1cc(-c2ccc(NC(=O)Nc3ccc(OC4(C)COC4)c(C(F)(F)F)c3)c(C3CC3)n2)c[nH]c1=O` [Example 104]: below 100 nM.
The same measure for `CCOc1cc(-c2cnc(NC(=O)Nc3ccc(OC4(C)COC4)c(C(F)(F)F)c3)c(C)c2)c[nH]c1=O` [Example 105]: below 100 nM; for `CCOc1cc(-c2ccc(NC(=O)Nc3ccc(OC4(C)COC4)c(C(F)(F)F)c3)cn2)c[nH]c1=O` [Example 106]: below 100 nM.
`O=C(Nc1ccc(F)c(C(F)(F)F)c1)Nc1ccc(-c2c[nH]c(=O)c(OCCCF)c2)cc1F` [Example 107] showed an IC50 below 100 nM.
`CCOc1cc(-c2cnc(NC(=O)Nc3ccc(OC4(C)COC4)c(C(F)(F)F)c3)c(C)n2)c[nH]c1=O` [Example 108] returned a half-maximal inhibitory concentration (IC50) below 100 nM.
On to `CCOc1cc(-c2ncc(NC(=O)Nc3ccc(CN4CCC4)c(C(F)(F)F)c3)c(C)n2)c[nH]c1=O` [Example 109], for which the IC50 is below 100 nM.
For `CCOc1cc(-c2ccc(NC(=O)Nc3ccc(OC4(C)COC4)c(C(F)(F)F)c3)c(OC)n2)c[nH]c1=O` [Example 110] the value was below 100 nM; for `CCOc1cc(-c2ncc(NC(=O)Nc3ccc(CN4CCCC4)c(C(F)(F)F)c3)c(C)n2)c[nH]c1=O` [Example 111], 100 to 500 nM.
For `CCOc1cc(-c2ccc(NC(=O)Nc3ccc(OC4(C)COC4)c(C(F)(F)F)c3)c(N(C)C)n2)c[nH]c1=O` [Example 112] the value was 100 to 500 nM.
For `CCOc1ccc(NC(=O)Nc2ccc(-c3ccc(=O)n(CC)c3)cc2F)cc1C(F)(F)F` [Example 113] the value was 100 to 500 nM; for `CCOc1cc(-c2cnc(NC(=O)Nc3ccc(CN(C)C)c(C(F)(F)F)c3)c(C)n2)c[nH]c1=O` [Example 114], 100 to 500 nM.
`CCOc1cc(-c2ccc(NC(=O)Nc3ccc(OC4(C)COC4)c(C(F)(F)F)c3)c(OC(C)C)n2)c[nH]c1=O` [Example 115] had an IC50 of 500 to 10000 nM.
The same measure for `CCOc1cc(-c2ccc(NC(=O)Nc3ccc(C(C)O)c(C(F)(F)F)c3)c(F)c2)c[nH]c1=O` (stereo not shown) [Example 116]: below 100 nM; for `CCOc1cc(-c2ccc(NC(=O)Nc3ccc(OC4(C)CN(C)C4)c(C(F)(F)F)c3)c(F)c2)c[nH]c1=O` [Example 117]: below 100 nM.
Take `CCOc1cc(-c2ccc(NC(=O)Nc3ccc(OC(C)(C)CO)c(C(F)(F)F)c3)c(F)c2)c[nH]c1=O` [Example 118]: the IC50 was below 100 nM.
For `CCOc1cc(-c2ccc(NC(=O)Nc3ccc(OC4(C)COC4)c(C(F)(F)F)c3)c(F)c2F)c[nH]c1=O` [Example 119] the value was below 100 nM; for `CCOc1cc(-c2ccc(NC(=O)Nc3ccc(C(C)(C)CO)c(C(F)(F)F)c3)c(F)c2)c[nH]c1=O` [Example 120], below 100 nM.
For `CC(C)Oc1ccc(NC(=O)Nc2ccc(-c3c[nH]c(=O)c(OCCCF)c3)cc2F)cc1C(F)(F)F` [Example 121] the value was below 100 nM.
The same measure for `CCOc1cc(-c2ccc(NC(=O)Nc3ccc(OC(C)CO)c(C(F)(F)F)c3)c(F)c2)c[nH]c1=O` (stereo not shown) [Example 122]: below 100 nM; for `CCOc1cc(-c2ccc(NC(=O)Nc3ccc(OC4(CO)CC4)c(C(F)(F)F)c3)c(F)c2)c[nH]c1=O` [Example 123]: below 100 nM.
Consider `CCOc1cc(=O)[nH]cc1-c1ccc(NC(=O)Nc2ccc(OC3(C)COC3)c(C(F)F)c2)c(F)c1` [Example 124], for which the IC50 is below 100 nM.
For `CCOc1cc(-c2ccc(NC(=O)Nc3ccc(CC(F)(F)CO)c(C(F)(F)F)c3)c(F)c2)c[nH]c1=O` [Example 125] the value was below 100 nM; for `CC1(Oc2ccc(NC(=O)Nc3ccc(-c4c[nH]c(=O)cc4OC(F)F)cc3F)cc2C(F)(F)F)COC1` [Example 126], below 100 nM.
For `CCOc1cc(-c2ccc(NC(=O)Nc3ccc(C(C)C#N)c(C(F)(F)F)c3)c(F)c2)c[nH]c1=O` (stereo not shown) [Example 127] the value was below 100 nM.
